Data from patent publication US11077116B2, “Isoxazole derivatives as inducers of fetal hemoglobin in erythroid precursor cells from beta-thalassemic patients” (RARE PARTNERS SRL, priority 2017, dated 2021).

System: ErPCs (erythroid precursor cells) of β-thalassemic patients
Test: HPLC analysis of hemoglobins in cell lysates of treated ErPCs (two-phase liquid culture)
Assay type: cell-based, human
Settings: for HbF induction: patient Th1 ErPCs (Table II); for HbF induction compared with HU: patient Th10 ErPCs (Table III); for HbF level in treated cells (table title): 100 nM as printed in title
Description: Patients were recruited following all the ethical requirements and the approval of the Ethical Committees of Ferrara Hospital. Blood samples were collected from 23 β-thalassemia patients after signature of the informed consent form.
The effects of isoxazole derivatives on cell growth and differentiation of erythroid precursors cells were determined by employing the two-phase liquid culture system and treated for five days with different concentration of the selected compound.
HPLC analyses were done on cell lysates derived from ErPCs of 23 patients and, through careful comparative analyses, we have monitored and quantified HbF, adult hemoglobins (HbA0 and HbA2) and the presence of α-aggregates. Generally, excess of α-globin chains is present in thalassemic patients that are deficient in β-globins, causing α-aggregates formation and precipitation. The α-aggregates reduction represents an important clinical result usually detectable in the presence of efficient HbF inducers.

Structure (SMILES): CCNC(=O)c1noc(-c2cc(C(C)C)c(O)cc2O)c1NC(=O)c1ccc(OC)cc1 [Compound 1]
- HbF induction: active in inducing HbF
- aggregates α % (patient Th1 ErPCs, 85 nM, untreated C− 6.70): 5.90%
- HbF % (patient Th1 ErPCs, 85 nM, untreated C− 15.47): 30.30%
- HbA2 % (patient Th1 ErPCs, 85 nM, untreated C− 31.29): 21.39%
- HbA0 % (patient Th1 ErPCs, 85 nM, untreated C− 46.54): 42.41%
- HbF induction compared with HU: more active than HU in inducing HbF
- aggregates α % (patient Th10 ErPCs, 85 nM, untreated C− 11.15): 2.26%
- HbF % (patient Th10 ErPCs, 85 nM, untreated C− 17.57): 35.54%
- HbA2 % (patient Th10 ErPCs, 85 nM, untreated C− 32.02): 25.81%
- HbA0 % (patient Th10 ErPCs, 85 nM, untreated C− 39.26): 36.39%

Structure (SMILES): CCNC(=O)c1noc(-c2cc(C(C)C)c(O)cc2O)c1NC(=O)CCN1CCOCC1 [Compound 2]
- HbF induction: active in inducing HbF
- aggregates α % (patient Th1 ErPCs, 50 nM, untreated C− 6.70): 2.81%
- HbF % (patient Th1 ErPCs, 50 nM, untreated C− 15.47): 21.67%
- HbA2 % (patient Th1 ErPCs, 50 nM, untreated C− 31.29): 24.82%
- HbA0 % (patient Th1 ErPCs, 50 nM, untreated C− 46.54): 50.70%
- HbF induction compared with HU: more active than HU in inducing HbF
- aggregates α % (patient Th10 ErPCs, 50 nM, untreated C− 11.15): 2.02%
- HbF % (patient Th10 ErPCs, 50 nM, untreated C− 17.57): 36.36%
- HbA2 % (patient Th10 ErPCs, 50 nM, untreated C− 32.02): 25.29%
- HbA0 % (patient Th10 ErPCs, 50 nM, untreated C− 39.26): 36.34%

Structure (SMILES): NC(=O)NO [HU, hydroxyurea, reference compound]
- HbF induction: active in inducing HbF
- HbF level in treated cells (table title) (patient Th1 ErPCs, untreated 15.47%): 24.51%
- aggregates α % (patient Th1 ErPCs, 100 μM, untreated C− 6.70): 2.80%
- HbF % (patient Th1 ErPCs, 100 μM, untreated C− 15.47): 24.51%
- HbA2 % (patient Th1 ErPCs, 100 μM, untreated C− 31.29): 33.19%
- HbA0 % (patient Th1 ErPCs, 100 μM, untreated C− 46.54): 37.61%
- HbF level in treated cells (table title) (patient Th10 ErPCs, untreated 17.57%): 19.42%
- aggregates α % (patient Th10 ErPCs, 100 μm, untreated C− 11.15): 11.55%
- HbF % (patient Th10 ErPCs, 100 μm, untreated C− 17.57): 19.42%
- HbA2 % (patient Th10 ErPCs, 100 μm, untreated C− 32.02): 34.82%
- HbA0 % (patient Th10 ErPCs, 100 μm, untreated C− 39.26): 34.22%
